Experiment [1] has as its system human cervical carcinoma (HeLa) cells. Put plainly: (Photo-)cytotoxicity on 2D cell monolayers, resazurin assay, HeLa. Type of experiment: cell-based. The conditions noted are these: for PI (480 nm): dark vs 480 nm (10 min, 3.1 J/cm^2). The source says: Before an experiment, the cells were passaged three times.
A general note: The colour change of resazurin is a common sign of viable cells or microbes.

Experiment [2] relates to non-cancerous retinal pigment epithelium (RPE-1) cells. Put plainly: (Photo-)cytotoxicity on 2D cell monolayers, resazurin assay, RPE-1.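 For all read-outs here: cells exposed to compound 4 h, medium exchanged, then irradiated or kept dark, 44 h further growth, viability by resorufin fluorescence (ex 540 nm, em 590 nm).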 The conditions noted are these: for PI (480 nm): RPE-1, dark vs 480 nm (10 min, 3.1 J/cm^2).
Experiment [3] relates to human glioblastoma astrocytoma (U373) cells. Put plainly: (Photo-)cytotoxicity on 2D cell monolayers, resazurin assay, U373. The following applies: for IC50: Homo sapiens, U373 MG.
Experiment [4] has as its system mouse colon carcinoma (CT-26) cells.
The test system of experiment [5] is human glioblastoma astrocytoma (U373) cells.
Experiment [6] relates to mouse colon carcinoma (CT-26) cells. Description: (Photo-)cytotoxicity on 2D cell monolayers, resazurin assay, CT-26. The following applies: for IC50: Mus musculus.
A further experiment concerns HeLa MCTS. Description: (Photo-)cytotoxicity on 3D multicellular tumor spheroids (ATP, CellTiter-Glo 3D). Type of experiment: cell-based, human. The following applies: for IC50: Homo sapiens. The method, then: autoclave. The hot emulsion was transferred into wells (50 μL per well) of a 96 cell culture well plate. The plates were exposed for 3 h to UV irradiation to ensure the sterility and allow the agarose solution to cool down. After this time, the agarose was overlayed with a HeLa cell suspension at a density of 3000 cells per well in 150 μL of media. The MCTS were cultivated and maintained at 37° C. in a cell culture incubator at 37° C. with 5% CO2 atmosphere. The culture media was replaced every two days. Within two-three days MCTs were formed from the cell suspension. The formation as well as integrity, diameter and volume of the MCTs was monitored by an Axio Observer Z1 (Carl Zeiss) phase contrast microscope. The volume was calculated using the following formula: V=4/3πr^3. The luminescence images along the z-axis were captured by a one-(λex=458 nm, λem=600-750 nm) or two-photon (λex=800 nm, λem=600-750 nm) excitation in the z-stack mode with a an LSM 880 (Carl Zeiss) laser scanning confocal microscope equipped with Argon and a Coherent Chameleon 2-Photon laser and a GaAsP detector.
The cytotoxicity of the compounds in 3D multicellular tumor spheroids (MCTS) was assessed by measurement of the ATP concentration. MCTS were treated with increasing concentrations of the compound (2% DMSO, v %) by replacing 50% of the media with drug supplemented media and incubation for 12 h. After this time, the MCTS were divided in three identical groups. The first group was strictly kept in the dark. The second group was exposed to a one-photon irradiation (500 nm, 10 J/cm^2) using a LED and the third group was exposed to a two-photon irradiation (800 nm, 10 J/cm^2) with a section interval of 5 μm using a LSM 880 (Carl Zeiss, Germany) laser scanning confocal microscope equipped with a Coherent Chameleon 2-Photon laser. After the irradiation, all groups were incubated additional 48 h. The ATP concertation was measured using a CellTiter-Glo 3D Cell Viability kit (Promega) by measuring the generated chemiluminescence with an infinite M200 PRO (Tecan) plate reader.

The mark [7] stands for this setting: dark, 4 h incubation, compounds 1-3 as chloride salts, read-out: IC50 dark.
Where [8] appears, read: read-out: IC50 480 nm (10 min, 3.1 J/cm^2), irradiation 480 nm (10 min, 3.1 J/cm^2), compounds 1-3 as chloride salts.

Read-outs that look alike come from different tables or passages of the source. Where only a bound is given, the exact number is not on record here.

For the molecule `C=CC1=C(C)c2cc3[nH]c(cc4nc(cc5[nH]c(cc1n2)c(C)c5CCC(=O)O)C(CCC(=O)O)=C4C)c(C)c3C=C` [PpIX, Protoporphyrin IX, reference compound], the IC50 in experiment [1] (Homo sapiens, dark, 4 h incubation, compounds 1-3 as chloride salts, read-out: IC50 dark) was over 100 µM; in experiment [1] (Homo sapiens, light or radiation study, 10 min, read-out: IC50 480 nm (10 min), irradiation 480 nm (10 min, 3.1 J/cm^2), compounds 1-3 as chloride salts) it was 2.5 ± 0.1 µM; in experiment [1] (Homo sapiens, light or radiation study, 40 min, read-out: IC50 540 nm (40 min), irradiation 540 nm (40 min, 9.5 J/cm^2), compounds 1-3 as chloride salts), 2.1 ± 0.3 µM; in experiment [3] (4 h, read-out: IC50 dark) it was 10.1 ± 0.7 µM; in experiment [3] (light or radiation study, 10 min, read-out: IC50 480 nm (10 min, 3.1 J/cm^2)), 1.3 ± 0.2 µM; in experiment [4], 400 ± 200 nM. In addition, the IC50 in experiment [5] is 1200 ± 300 nM; in experiment [6] (CT26, 4 h, read-out: IC50 dark), 2800 ± 500 nM; in experiment [6] (CT26, light or radiation study, 40 min, read-out: IC50 540 nm (40 min, 9.5 J/cm^2)) it was 500 ± 200 nM. Besides, the “PI (480 nm)” value is over 40.0 in experiment [1]; over 26.3 in experiment [2]; 7.8 in experiment [3] (U373, dark vs 480 nm (10 min, 3.1 J/cm^2)); 7.0 in experiment [6] (CT-26, dark vs 480 nm (10 min, 3.1 J/cm^2)). The “PI (540 nm)” value is reported as over 47.6 in experiment [1] (dark vs 540 nm (40 min, 9.5 J/cm^2)); over 30.3 in experiment [2] (RPE-1, dark vs 540 nm (40 min, 9.5 J/cm^2)); 8.4 in experiment [3] (U373, dark vs 540 nm (40 min, 9.5 J/cm^2)); 5.6 in experiment [6] (CT-26, dark vs 540 nm (40 min, 9.5 J/cm^2)).

Take `COc1ccccc1C=Cc1ccnc(-c2cc(C=Cc3ccccc3OC)ccn2)c1.F[P-](F)(F)(F)(F)F.F[P-](F)(F)(F)(F)F.[Ru+2].c1ccc(-c2ccccn2)nc1.c1ccc(-c2ccccn2)nc1` [Compound 13, [Ru(bpy)2((E,E′)-4,4′-Bis[o-methoxystyryl]-2,2′-bipyridine)][PF6]2]: the results for the “PI (480 nm)” value in experiment [1] and in experiment [2] were over 124 and over 66, respectively. The IC50 worked out at 62 ± 10 µM in experiment [1] (setting [7]) and 0.5 ± 0.1 µM in experiment [1] (setting [8]).

As for `COc1ccc(/C(C)=C/c2ccnc(-c3cc(/C=C(\C)c4ccc(OC)cc4)ccn3)c2)cc1.F[P-](F)(F)(F)(F)F.F[P-](F)(F)(F)(F)F.[Ru+2].c1ccc(-c2ccccn2)nc1.c1ccc(-c2ccccn2)nc1` [Compound 18], the “PI (480 nm)” value in experiment [1] is over 6; in experiment [2], over 3. In addition, the figures for the IC50 in experiment [1] (setting [7]) and in experiment [1] (setting [8]) were over 100 µM and 16.7 ± 0.7 µM, respectively.

Turning to `COc1ccc(/C=C/c2ccnc(-c3cc(/C=C/c4ccc(OC)cc4)ccn3)c2)cc1.F[P-](F)(F)(F)(F)F.F[P-](F)(F)(F)(F)F.[Ru+2].c1cnc(-c2cnccn2)cn1.c1cnc(-c2cnccn2)cn1` [Compound 19, [Ru(bpz)2((E,E′)-4,4′-Bis[p-methoxystyryl]-2,2′-bipyridine)][PF6]2], in experiment [1], the “PI (480 nm)” value is on record as over 2. The IC50 is over 100 µM in experiment [1] (setting [7]) and 59 ± 8 µM in experiment [1] (setting [8]).

In the case of `COc1cccc(/C=C/c2ccnc(-c3cc(/C=C/c4cccc(OC)c4)ccn3)c2)c1.F[P-](F)(F)(F)(F)F.F[P-](F)(F)(F)(F)F.[Ru+2].c1ccc(-c2ccccn2)nc1.c1ccc(-c2ccccn2)nc1` [Compound 12, [Ru(bpy)2((E,E′)-4,4′-Bis[m-methoxystyryl]-2,2′-bipyridine)][PF6]2], the “PI (480 nm)” value in experiment [1] is over 167; in experiment [2] it was over 63. Moreover, the IC50 is over 100 µM in experiment [1] (setting [7]) and 0.6 ± 0.3 µM in experiment [1] (setting [8]).

On to `F[P-](F)(F)(F)(F)F.F[P-](F)(F)(F)(F)F.Oc1ccc(/C=C/c2ccnc(-c3cc(/C=C/c4ccc(O)cc4)ccn3)c2)cc1.[Ru+2].c1ccc(-c2ccccn2)nc1.c1ccc(-c2ccccn2)nc1` [Compound 15, [Ru(bpy)2((E,E′)-4,4′-Bis[p-hydroxystyryl]-2,2′-bipyridine)][PF6]2], for which the “PI (480 nm)” value is over 100 in experiment [1] and over 9 in experiment [2]. Besides, the IC50 is over 100 µM in experiment [1] (setting [7]) and 1 ± 0.3 µM in experiment [1] (setting [8]).

Take `C1=Cc2nc1c(-c1ccccc1)c1ccc([nH]1)c(-c1ccccc1)c1nc(c(-c3ccccc3)c3ccc([nH]3)c2-c2ccccc2)C=C1` [Compound H2TPP, tetraphenylporphyrin, reference compound]: the IC50 is over 100 µM with HeLa MCTS (dark, 12 h incubation, read-out: IC50 dark); over 100 µM in the experiment on HeLa MCTS (light or radiation study, 1-Photon irradiation (500 nm, 10 J/cm^2), read-out: IC50 1-Photon irradiation (500 nm, 10 J/cm^2)); over 100 µM in the experiment with HeLa MCTS (light or radiation study, 2-Photon irradiation (800 nm, 10 J/cm^2, section interval of 5 μm), read-out: IC50 2-Photon irradiation (800 nm, 10 J/cm^2)). In addition, the “PI (2-Photon)” value in the experiment with HeLa MCTS (dark vs 2-Photon irradiation (800 nm, 10 J/cm^2)) is over 100.

Take “[Ru(bpy)2((E,E′)-4,4′-Bis[p-aminostyryl]-2,2′-bipyridine)][PF6]2 [Compound 17]”: the “PI (480 nm)” value is listed as over 71 in experiment [1] and over 13 in experiment [2]. Moreover, the IC50 is over 100 µM in experiment [1] (setting [7]) and 1.4 ± 0.1 µM in experiment [1] (setting [8]).

Consider `F[P-](F)(F)(F)(F)F.F[P-](F)(F)(F)(F)F.Fc1ccc(C=Cc2ccnc(-c3cc(C=Cc4ccc(F)cc4)ccn3)c2)cc1.[Ru+2].c1ccc(-c2ccccn2)nc1.c1ccc(-c2ccccn2)nc1` [Compound 14, [Ru(bpy)2((E,E′)-4,4′-Bis[p-fluorostyryl]-2,2′-bipyridine)][PF6]2], for which the entries for the “PI (480 nm)” value in experiment [1] and in experiment [2] were over 125 and over 68, respectively. For the same molecule, the IC50 in experiment [1] (setting [7]) was over 100 µM; in experiment [1] (setting [8]) it was 0.8 ± 0.1 µM.

For the molecule `COc1ccc(/C=C/c2ccnc(-c3cc(/C=C/c4ccc(OC)cc4)ccn3)c2)cc1.F[P-](F)(F)(F)(F)F.F[P-](F)(F)(F)(F)F.[Os+2].c1ccc(-c2ccccn2)nc1.c1ccc(-c2ccccn2)nc1` [Compound 16, [Os(bpy)2((E,E′)-4,4′-Bis[p-methoxystyryl]-2,2′-bipyridine)][PF6]2], the “PI (480 nm)” value is over 4 in experiment [1] and over 3 in experiment [2]. Besides, the values for the IC50 in experiment [1] (setting [7]) and in experiment [1] (setting [8]) were over 100 µM and 27 ± 6 µM, respectively.

The values above are taken from patent US20220409727A1, “Metal Complexes Bearing Bisstyryl-Bipyridine Ligand and Their Use as Photosensitizer Agent in One and Two-Photon Photodynamic Therapy” (Paris Sciences et Lettres, priority 2019, published 2022).
